US10947203B2, “1,4,5-substituted 1,2,3-triazole analogues as antagonists of the pregnane X receptor” (ST. JUDE CHILDREN'S RESEARCH HOSPITAL, priority 2016, dated 2021)

Columns and labels:
[1] = test system: primary human hepatocytes (PHHs); assay: midazolam metabolism in primary human hepatocytes pretreated with hPXR agonist; format: cell-based; details: 10 μM test compound; 72 hr pretreatment with DMSO, 1.6 μM RIF, 0.5 or 5 μM PTX; then 3.3 μM MDZ 4 h; FIG. 1A
Description: (§1) The concentrations of 1′-OH MDZ (MDZ metabolite) in the media of each pretreatment condition were determined using LC/MS/MS as described in the Examples. […] PHHs were also treated with 1 μM of PTX in the absence and presence of 10 μM of the test compound, and then the concentrations of major PTX metabolites, 3-OH PTX (by CYP3A4) and 6α-OH PTX (by CYP2C8), were determined using LC/MS/MS at 24 hr and 48 hr of treatment, respectively.
(§2) Midazolam and 1-OH midazolam were from BD Gentest. Midazolam-D4 maleate (internal standard, IS) was from Cerilliant; Paclitaxel and 3′-p-hydroxypaclitaxel were from Sigma; and 6u-hydroxy Paclitaxel was from Cayman Chemical. 100 μl of reaction medium at each different time point was collected and 200 μl of acetonitrile containing IS was added. This solution was then vigorously mixed for 10 min and centrifuged at 10,000 rpm for 10 min. Calibration and quality control samples were prepared. 5 μl of the samples was injected onto a Waters Acquity UPLC BEH C18 column (2.1x 50 mm, 1.7 μm), using a Waters Acquity UPLC system. Chromatographic separation was performed by gradient elution at a constant flow rate of 1 mL/min for 15 min. The gradient consisted of 0.1% formic acid water (mobile phase A) and methanol (mobile phase B). […] Nitrogen was applied as curtain, collision and drying gas at 60 psi. […]

[2] = test system: primary human hepatocytes (PHHs); assay: paclitaxel metabolism in primary human hepatocytes; format: cell-based; details: 1 μM PTX with 10 μM test compound; 24 and 48 hr; FIGS. 1B, 1C
Description: as §1, §2

[3] = test system: hPXR-mediated increase in CYP3A expression; assay: liver Cyp3a11 mRNA and CYP3A protein in hPXR-tg mice; format: in vivo, mouse; details: RIF 10 mg/kg plus test compound 200 mg/kg, 72 h, FIGS. 3A-3C
Description: Briefly, mouse liver Cyp3a11 mRNA was analyzed by real-time PCR in hPXR-tg mice treated with vehicle control (Vehicle), RIF (10 mg/kg) or RIF (10 mg/kg) plus test compound (200 mg/kg) for 72 h. Each data point represents the level of Cyp3a11 mRNA (FIG. 3A) or protein (FIG. 3B) in an individual mouse; lines indicate the mean value for 3-7 mice per group.
hPXR-tg mice were generated previously (Xie et al., 2000). Five mice in each group were dosed orally with vehicle control or 10 mg/kg RIF, every 24 h for three days. Eight hours after the last dose, the animals were euthanized by C02 and liver tissues were harvested. A piece of each liver was preserved in RNAlater solution (Invitrogen) at 4° C. for mRNA isolation. The remaining tissue was instantly frozen in liquid nitrogen and stored at −80° C. for total protein extraction. […]

[4] = test system: hPXR-mediated CYP3A4 promoter reporter activity; assay: CYP3A4 promoter reporter activity in hPXR-CYP3A4-luc reporter mice (bioluminescence imaging); format: in vivo, mouse; details: RIF 10 mg/kg plus test compound 150 mg/kg every 24 h for 2 days; imaging 10 h after last treatment; FIG. 4
Description: Individual mouse received 3 rounds of sequential treatment of vehicle control (Vehicle), RIF (10 mg/kg) and RIF (10 mg/kg) plus the test compound (150 mg/kg) every 24 h for 2 days, respectively, with a washout period of 72-hour between two rounds of treatment. The luciferase activity in these reporter mice was recorded by bioluminescence imaging 10 h after the last treatment of each round, and the induction of CYP3A4 promoter reporter activity was calculated as described in Examples. Each data point represents the induction of CYP3A4 promoter reporter activity by the treatment in an individual mouse, and dos lines indicate the CYP3A4 promoter reporter activity change in individual mouse after following round of treatment. p values are indicated between the two treatment compared by paired t test.
10 hours after the last treatment of each round, the mice were imaged as described above. Uniform regions of interest were drawn around the liver, and total photon flux was analyzed with Living Image 3.2 software (Xenogen). The induction of CYP3A4-luc reporter activity was calculated using the imaging from the same mouse as follows: induction rate=total photon flux (after treatment)/total photon flux (before treatment).

[5] = test system: RIF-induced metabolism of the anesthetic (CYP3A11); assay: loss of righting reflex (LORR) assay in hPXR-tg mice; format: in vivo, mouse; details: RIF 10 mg/kg plus test compound 200 mg/kg every 24 h for three days, FIG. 5
Description: Loss of righting reflex (LORR) duration was recorded as described in Examples to measure metabolism of the anesthetic ([…]) in hPXR-tg, mice before and after treatment with vehicle, RIF, and RIF plus the test compound as indicated. Each data point represents LORR duration in an individual mouse; lines indicate LORR duration change in individual mouse before and after treatment. P values indicate comparison of values by paired t test.
Mice were intraperitoneally injected with 250 mg/kg of 2,2,2-tribromoethanol, which is metabolically cleared only via mouse CYP3A11. After the mice lost their righting reflex, they were placed on their backs under a heat lamp. The duration of LORR was measured as the time from the start of LORR to recovery (i.e., when mice could right themselves after being placed on their backs twice within 1 min). A baseline LORR duration was established for each mouse at the administered dose of 2,2,2-tribromoethanol. […] The paired Student's t-test was used to compare LORR duration between baseline and after treatment. A P value <0.05 was considered to indicate a significant difference between compared groups.

Structure (SMILES): COc1ccc(OC)c(-n2nnc(S(=O)(=O)c3ccc(C(C)(C)C)cc3)c2C)c1 [4-((4-(tert-butyl)phenyl)sulfonyl)-1-(2,5-dimethoxyphenyl)-5-methyl-1H-1,2,3-triazole]
- metabolism of MDZ (1′-OH MDZ concentration in media) [1]: essentially blocked
- metabolism of PTX to 3-OH PTX and 6α-OH PTX [2]: effectively blocked
- hPXR-mediated increase in CYP3A expression (liver Cyp3a11 mRNA, CYP3A protein) [3]: inhibits the hPXR-mediated increase in CYP3A expression
- RIF-induced expression of the reporter under the control of the CYP3A4 promoter [4]: significantly reduced
- RIF-induced metabolism of the anesthetic, as determined by LORR duration [5]: significantly inhibited
